Literature values in patent publication US6846809B2, “PEI: DNA vector formulations for in vitro and in vivo gene delivery” (Board of Regents, The University of Texas System, priority 2000, dated 2005).
Where a name gives a salt, the structure may show the parent alone. Read-outs that look alike come from different tables or passages of the source. *1 amine or outer side, *2 acyl side, *3 side chain or, on linkers, in order; H or OH if unused. Where a SMILES comes first, the peptide text is derived from it. Bridges are numbered along the chain shown (N, C = ends). Roman numbers before positions name the chains, in order. [ ]: non-standard residue; d: D form. Actinocin(9to1) = Cc1c2oc3c(C)ccc(C(=O)[*:1])c3nc-2c(C(=O)[*:2])c(N)c1=O; NMeV = CN[C@H](C(=O)O)C(C)C; Sar = CNCC(=O)O

How the values were obtained:
[1] = tested on: chronic myelogenous leukemia; conditions: previously untreated
multiple myeloma = conditions: oral administration
certain animal tumors = conditions: in vivo
[2] = mouse, in vivo
[3] = tested on: Hodgkin's Disease, testicular tumors, squamous cell cancers

In the case of `Cc1c2oc3c(C)ccc(C(=O)N[C@@H]4C(=O)N[C@H](C(C)C)C(=O)N5CCC[C@H]5C(=O)N(C)CC(=O)N(C)[C@@H](C(C)C)C(=O)O[C@@H]4C)c3nc-2c(C(=O)N[C@@H]2C(=O)N[C@H](C(C)C)C(=O)N3CCC[C@H]3C(=O)N(C)CC(=O)N(C)[C@@H](C(C)C)C(=O)O[C@@H]2C)c(N)c1=O` [Actinomycin D] (I: T[dV]P[Sar][NMeV] / II: T[dV]P[Sar][NMeV]; ester I:1-I:C, II:1-II:C; linker I:N-II:N via Actinocin(9to1)), the blood-brain barrier passage (human, in vivo) is listed as “does not pass the blood-brain barrier”, the “fraction of dose excreted in the urine” value (human, in vivo) is listed as 10% and the “fraction of dose excreted intact into the bile” value (human, in vivo) is listed as “Half of the dose”. For the same compound, the half-life (human, in vivo) was “about 36 hours”.
In the case of `CS(=O)(=O)OCCCCOS(C)(=O)=O` [Busulfan, 1,4-butanediol dimethanesulfonate], the “adults obtaining hematologic remission” value [1] is listed as “Approximately 90%”.
For `O=C(O)CCCc1ccc(N(CCCl)CCCl)cc1` [Chlorambucil, 4-[bis(2-chlorethyl)amino] benzenebutanoic acid], the “oral / gastrointestinal absorption” value (human, in vivo) is listed as “rapidly and completely absorbed”, the terminal half-life (plasma) is listed as “about 1.5 hours” and the “time to peak plasma levels” value (single oral doses of about 0.6 mg/kg to about 1.2 mg/kg) is listed as “within one hour”.
For `O.O=P1(N(CCCl)CCCl)NCCCO1` (centres unmarked) [Cyclophosphamide, 2H-1,3,2-Oxazaphosphorin-2-amine, N,N-bis(2-chloroethyl)tetrahydro-, 2-oxide, monohydrate], the “stability in the gastrointestinal tract” value (human, in vivo) is given as “stable in the gastrointestinal tract” and the local tolerance (oral and parental routes) is given as “does not cause local vesication, necrosis, phlebitis or even pain”.
For `COc1cccc2c1C(=O)c1c(O)c3c(c(O)c1C2=O)C[C@@](O)(C(C)=O)C[C@@H]3O[C@H]1C[C@H](N)[C@H](O)[C@H](C)O1` [Daunorubicin, 5,12-Naphthacenedione, (8S-cis)-8-acetyl-10-[(3-amino-2,3,6-trideoxy-a-L-lyxo-hexanopyranosyl)oxy]-7,8,9,10-tetrahydro-6,8,11-trihydroxy-10-methoxy-, hydrochloride], the elimination half-life (human, in vivo) is given as “about 19 hours”, the “fraction secreted into the bile” value (human, in vivo) is given as “about 40%” and the half-life of distribution (human, in vivo) is given as 45 min. The “oral / gastrointestinal absorption” value (human, in vivo) was “poor”.
In the case of `COc1cccc2c1C(=O)c1c(O)c3c(c(O)c1C2=O)C[C@@](O)(C(=O)CO)C[C@@H]3O[C@H]1C[C@H](N)[C@H](O)[C@H](C)O1` [Doxorubicin, 5,12-Naphthacenedione, (8s-cis)-10-[(3-amino-2,3,6--trideoxy-a-L-lyxo-hexopyranosyl)oxy]-7,8,9,10-tetrahydro-6,8,11-trihydroxy-8-(hydroxyacetyl)-1-methoxy-hydrochloride], the elimination half-life (human, in vivo) is given as “about 30 hours” and the “fraction of dose excreted in the urine” value (human, in vivo) is given as “a few percent”.
In the case of `O=NN(CCCl)C(=O)NC1CCCCC1` [Lomustine, 1-(2-chloro-ethyl)-3-cyclohexyl-1 nitrosourea], the “serum half-life of the metabolites” value (human, in vivo) is given as 16 hours to about 2 days and the “radioactivity excreted as degradation products within 24 hours” value (oral radioactive drug, about 30 mg/m^2 to 100 mg/m^2) is given as “about half”.
In the case of `N[C@@H](Cc1ccc(N(CCCl)CCCl)cc1)C(=O)O` [Melphalan, 4-[bis(2-chloroethyl)amino]-L-phenylalanine], the “patients showing a favorable response” value (multiple myeloma) is given as “about one third to one half”.
For `CO[C@@]12[C@H](COC(N)=O)C3=C(C(=O)C(C)=C(N)C3=O)N1C[C@@H]1N[C@@H]12` [Mitomycin], the “time required to reduce the serum concentration by about 50%” value (30 mg bolus injection) is given as 17 min and the “fraction of dose excreted in the urine” value (human, in vivo) is given as “Approximately 10%”.
In the case of `CC[C@]1(O)C[C@@H]2CN(CCc3c([nH]c4ccccc34)[C@@](C(=O)OC)(c3cc4c(cc3OC)N(C)[C@H]3[C@@](O)(C(=O)OC)[C@H](OC(C)=O)[C@]5(CC)C=CCN6CC[C@]43[C@@H]65)C2)C1` [Vinblastine], the “fraction of dose recovered in the feces” value (after biliary excretion) is listed as “about 10%”, the “distribution into blood cells” value (human, in vivo) is listed as “extensively concentrated in platelets” and the “fraction of dose excreted in the urine” value (human, in vivo) is listed as “Approximately 15%”.
For `CC[C@]1(O)C[C@H]2CN(CCc3c([nH]c4ccccc34)[C@@](C(=O)OC)(c3cc4c(cc3OC)N(C=O)[C@H]3[C@@](O)(C(=O)OC)[C@H](OC(C)=O)[C@]5(CC)C=CCN6CC[C@]43[C@@H]65)C2)C1` [Vincristine], the “distribution into blood cells” value (human, in vivo) is listed as “extensively concentrated in platelets”.
For `COc1cccc2c1C(=O)c1c(O)c3c(c(O)c1C2=O)C[C@@](O)([C@H](C)O)C[C@@H]3O[C@H]1C[C@H](N)[C@H](O)[C@H](C)O1` [daunorubicinol], the half-life (human, in vivo) is given as “about 27 hours”.
In the case of `N[C@H](Cc1ccc(N(CCCl)CCCl)cc1)C(=O)O` [medphalan], the “activity compared with the L-isomer” value (certain animal tumors) is listed as “less active against certain animal tumors”.
For Bleomycin, the “concentrations in hematopoietic tissue / bone marrow” value [2] is given as “low concentrations”, the “concentrations in skin, lungs, kidneys, peritoneum, and lymphatics” value [2] is given as “high concentrations” and the time to improvement ([3]; Hodgkin's Disease and testicular tumors) is given as at most 2 weeks. For the same compound, the time to improvement ([3]; squamous cell cancers) was at most 3 weeks and the “fraction of dose excreted in the urine” value (human, in vivo) was 60-70%.
